Target: T1, Ca^2+-activated Cl^– channel (CaCC) (Homo sapiens, UniProt Q5XXA6)
T1 construct: endogenous in cells; host or cells: CFBE41o- cells stably expressing YFP (YFP-CFBE cells)
T1 sequence (Q5XXA6 1-986): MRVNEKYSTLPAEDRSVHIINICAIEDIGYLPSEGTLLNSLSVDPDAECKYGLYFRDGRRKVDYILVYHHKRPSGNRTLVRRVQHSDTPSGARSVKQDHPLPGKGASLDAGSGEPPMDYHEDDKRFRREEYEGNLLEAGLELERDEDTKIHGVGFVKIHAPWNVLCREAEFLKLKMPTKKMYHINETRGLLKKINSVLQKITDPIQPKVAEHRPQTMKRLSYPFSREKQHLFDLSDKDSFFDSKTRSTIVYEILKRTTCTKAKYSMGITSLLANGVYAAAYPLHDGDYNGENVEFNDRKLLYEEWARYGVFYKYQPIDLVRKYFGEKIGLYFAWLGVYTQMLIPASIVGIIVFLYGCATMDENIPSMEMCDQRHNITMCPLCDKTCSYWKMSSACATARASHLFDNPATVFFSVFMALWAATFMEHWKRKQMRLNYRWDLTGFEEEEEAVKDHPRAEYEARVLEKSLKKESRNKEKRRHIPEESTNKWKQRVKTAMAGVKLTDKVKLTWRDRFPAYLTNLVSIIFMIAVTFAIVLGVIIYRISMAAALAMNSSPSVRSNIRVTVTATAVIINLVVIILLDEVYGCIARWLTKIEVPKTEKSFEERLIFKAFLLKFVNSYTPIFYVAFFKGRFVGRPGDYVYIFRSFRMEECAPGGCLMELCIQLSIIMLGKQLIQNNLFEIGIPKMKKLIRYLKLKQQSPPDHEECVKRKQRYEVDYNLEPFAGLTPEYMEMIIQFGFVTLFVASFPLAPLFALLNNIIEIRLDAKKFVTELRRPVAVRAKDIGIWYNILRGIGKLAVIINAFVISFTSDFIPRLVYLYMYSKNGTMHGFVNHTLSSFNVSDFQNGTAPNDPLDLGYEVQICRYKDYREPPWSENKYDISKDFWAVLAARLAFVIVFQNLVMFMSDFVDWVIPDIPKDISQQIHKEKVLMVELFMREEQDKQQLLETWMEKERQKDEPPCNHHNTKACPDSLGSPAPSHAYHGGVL
Assay: CaCC-mediated anion transport in YFP-CFBE cells
Assay type: cell-based
Details: UTP 1 mM; CaCCinh-A01 10 μM
Description: (for chemical structure, see ESI Fig. S15 ^†).
the PBS bathing cells 10 minutes prior to PBS iodide addition, whereas UTP was added to cells with the PBS iodide solution. Fluorescence was measured for 14 seconds; 2 seconds before and 12 seconds after injection of 110 l PBS iodide solution (137 mM Cl- replaced by I-) into each well (to obtain a final concentration of I- of 100 mM).
We expressed cell fluorescence values (F) relative to the fluorescence value immediately before I- injection (F0), excluding the initial decrease, which likely represents the quenching of extracellular YFP released from cells and signal reduction accompanying the increase in solution volume bathing cells. To quantify anion transport by test anionophores, we determined the initial slope of the fluorescence decay following I - addition by fitting first order exponential functions to the last 12 seconds of each fluorescence recording. […]
fluorescence microscopy as described previously.10 In brief, YFP-FRT cells were washed 3x with PBS before transfer to a perfusion chamber mounted on the stage of a Leica DM IRB microscope. […] Any anionophore not incorporated into YFP-FRT cell membranes was removed from the chamber by perfusion with PBS when fluorescence measurements commenced. […]
Fluorescence quenching by the anionophore vehicle DMSO was subtracted from each test measurement. […]

effect on CaCC activity: activated little CaCC activity
SMILES: O=c1ccn([C@@H]2O[C@H](COP(=O)(O)OP(=O)(O)OP(=O)(O)O)[C@@H](O)[C@H]2O)c(=O)[nH]1 [UTP]

Reference: article PMC6984391, “Anion carriers as potential treatments for cystic fibrosis: transport in cystic fibrosis cells, and additivity to channel-targeting drugs” (Chemical Science, 2019)
